From ChEMBL document CHEMBL3991601, “The target landscape of clinical kinase drugs” (Science, 2017)
Counter-ions that a name gives are not always drawn. Activity calls are given as the source filed them.

Experiments:
[1] = biological target: AP2-associated protein kinase 1 (Homo sapiens, UniProt Q2M2I8)
[2] = biological target: Tyrosine-protein kinase BTK (Homo sapiens, UniProt Q06187)
[3] = biological target: Cyclin-dependent kinase 12 (Homo sapiens, UniProt Q9NYV4)
[4] = biological target: Casein kinase II subunit alpha' (Homo sapiens, UniProt P19784)
[5] = biological target: ATP-dependent RNA helicase DDX3X (Homo sapiens, UniProt O00571)
Insulin receptor = Insulin receptor (Homo sapiens, UniProt P06213)
LIM domain kinase 1 = LIM domain kinase 1 (Homo sapiens, UniProt P53667)
[6] = biological target: Mitogen-activated protein kinase 1 (Homo sapiens, UniProt P28482)
Myosin-10 = Myosin-10 (Homo sapiens, UniProt P35580)
[7] = biological target: T1, Membrane-associated tyrosine- and threonine-specific cdc2-inhibitory kinase (Homo sapiens, UniProt Q99640)
T1 sequence (Q99640 whole entry): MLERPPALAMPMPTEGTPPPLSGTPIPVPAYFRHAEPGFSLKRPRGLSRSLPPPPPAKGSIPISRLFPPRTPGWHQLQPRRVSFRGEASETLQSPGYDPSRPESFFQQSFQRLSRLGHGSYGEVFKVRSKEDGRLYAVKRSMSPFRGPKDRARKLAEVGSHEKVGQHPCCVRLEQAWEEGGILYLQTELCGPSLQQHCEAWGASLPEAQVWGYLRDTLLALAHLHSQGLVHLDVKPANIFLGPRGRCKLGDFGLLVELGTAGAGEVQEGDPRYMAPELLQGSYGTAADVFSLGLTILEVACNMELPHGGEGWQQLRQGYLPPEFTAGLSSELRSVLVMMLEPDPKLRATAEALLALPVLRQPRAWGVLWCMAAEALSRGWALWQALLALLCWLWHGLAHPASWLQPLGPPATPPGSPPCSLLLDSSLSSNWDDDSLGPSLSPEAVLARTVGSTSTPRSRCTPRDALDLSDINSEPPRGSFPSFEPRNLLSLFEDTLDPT

[8] = biological target: cAMP-dependent protein kinase catalytic subunit gamma (Homo sapiens, UniProt P22612)
[9] = biological target: Serine/threonine-protein kinase SIK2 (Homo sapiens, UniProt Q9H0K1)
[10] = biological target: T2, Exosome RNA helicase MTR4 (Homo sapiens, UniProt P42285)
T2 sequence (P42285 whole entry): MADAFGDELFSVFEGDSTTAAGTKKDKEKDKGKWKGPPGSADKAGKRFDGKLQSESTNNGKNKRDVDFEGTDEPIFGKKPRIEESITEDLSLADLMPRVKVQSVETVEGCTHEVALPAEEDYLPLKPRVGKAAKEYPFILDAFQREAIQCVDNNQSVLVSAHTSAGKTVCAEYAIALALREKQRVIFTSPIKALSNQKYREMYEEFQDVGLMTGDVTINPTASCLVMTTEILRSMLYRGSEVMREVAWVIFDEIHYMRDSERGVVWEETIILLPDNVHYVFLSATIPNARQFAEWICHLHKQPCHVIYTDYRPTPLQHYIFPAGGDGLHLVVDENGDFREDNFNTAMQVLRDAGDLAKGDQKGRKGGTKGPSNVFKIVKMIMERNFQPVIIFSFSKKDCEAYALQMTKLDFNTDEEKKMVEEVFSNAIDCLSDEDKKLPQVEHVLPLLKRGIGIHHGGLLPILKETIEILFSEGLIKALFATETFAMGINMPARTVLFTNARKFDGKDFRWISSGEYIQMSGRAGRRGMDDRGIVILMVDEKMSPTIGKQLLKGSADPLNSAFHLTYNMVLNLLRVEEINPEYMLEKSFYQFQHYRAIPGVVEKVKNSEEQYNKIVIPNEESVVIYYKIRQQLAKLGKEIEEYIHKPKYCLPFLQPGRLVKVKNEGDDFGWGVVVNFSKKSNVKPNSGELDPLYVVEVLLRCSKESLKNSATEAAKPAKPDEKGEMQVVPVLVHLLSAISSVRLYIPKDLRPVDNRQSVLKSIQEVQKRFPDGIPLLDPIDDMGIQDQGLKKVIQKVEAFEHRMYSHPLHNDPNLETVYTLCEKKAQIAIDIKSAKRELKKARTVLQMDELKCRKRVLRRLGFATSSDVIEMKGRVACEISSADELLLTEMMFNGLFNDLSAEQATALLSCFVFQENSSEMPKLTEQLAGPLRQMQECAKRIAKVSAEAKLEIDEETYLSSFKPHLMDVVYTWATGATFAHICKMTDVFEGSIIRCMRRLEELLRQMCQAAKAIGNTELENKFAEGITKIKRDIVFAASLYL

TGF-beta receptor type-2 = TGF-beta receptor type-2 (Homo sapiens, UniProt P37173)
Note: in the data inactive means no Kd found up to 30 µM.

cAMP-dependent protein kinase catalytic subunit gamma, sequence (P22612 whole entry): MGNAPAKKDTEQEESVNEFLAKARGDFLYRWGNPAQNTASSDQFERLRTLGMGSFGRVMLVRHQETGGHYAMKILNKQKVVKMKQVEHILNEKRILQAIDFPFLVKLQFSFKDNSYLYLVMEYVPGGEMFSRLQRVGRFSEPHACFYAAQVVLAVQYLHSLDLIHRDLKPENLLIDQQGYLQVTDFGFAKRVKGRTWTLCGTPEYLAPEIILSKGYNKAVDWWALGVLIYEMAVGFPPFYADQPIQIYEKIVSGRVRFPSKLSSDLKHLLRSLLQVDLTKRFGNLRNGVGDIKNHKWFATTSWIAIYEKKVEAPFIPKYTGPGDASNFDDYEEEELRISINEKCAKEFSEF
Mitogen-activated protein kinase 1, sequence (P28482 whole entry): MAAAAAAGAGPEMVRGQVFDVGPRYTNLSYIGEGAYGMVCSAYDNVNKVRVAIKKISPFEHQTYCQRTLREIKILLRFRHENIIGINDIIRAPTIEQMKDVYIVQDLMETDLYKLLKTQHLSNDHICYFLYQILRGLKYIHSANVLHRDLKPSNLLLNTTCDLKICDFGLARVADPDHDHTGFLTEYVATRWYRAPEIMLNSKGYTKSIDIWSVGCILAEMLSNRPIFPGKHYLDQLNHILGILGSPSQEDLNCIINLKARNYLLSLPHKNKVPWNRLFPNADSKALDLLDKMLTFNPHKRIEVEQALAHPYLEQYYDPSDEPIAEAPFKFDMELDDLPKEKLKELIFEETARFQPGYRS
Serine/threonine-protein kinase SIK2, sequence (Q9H0K1 whole entry): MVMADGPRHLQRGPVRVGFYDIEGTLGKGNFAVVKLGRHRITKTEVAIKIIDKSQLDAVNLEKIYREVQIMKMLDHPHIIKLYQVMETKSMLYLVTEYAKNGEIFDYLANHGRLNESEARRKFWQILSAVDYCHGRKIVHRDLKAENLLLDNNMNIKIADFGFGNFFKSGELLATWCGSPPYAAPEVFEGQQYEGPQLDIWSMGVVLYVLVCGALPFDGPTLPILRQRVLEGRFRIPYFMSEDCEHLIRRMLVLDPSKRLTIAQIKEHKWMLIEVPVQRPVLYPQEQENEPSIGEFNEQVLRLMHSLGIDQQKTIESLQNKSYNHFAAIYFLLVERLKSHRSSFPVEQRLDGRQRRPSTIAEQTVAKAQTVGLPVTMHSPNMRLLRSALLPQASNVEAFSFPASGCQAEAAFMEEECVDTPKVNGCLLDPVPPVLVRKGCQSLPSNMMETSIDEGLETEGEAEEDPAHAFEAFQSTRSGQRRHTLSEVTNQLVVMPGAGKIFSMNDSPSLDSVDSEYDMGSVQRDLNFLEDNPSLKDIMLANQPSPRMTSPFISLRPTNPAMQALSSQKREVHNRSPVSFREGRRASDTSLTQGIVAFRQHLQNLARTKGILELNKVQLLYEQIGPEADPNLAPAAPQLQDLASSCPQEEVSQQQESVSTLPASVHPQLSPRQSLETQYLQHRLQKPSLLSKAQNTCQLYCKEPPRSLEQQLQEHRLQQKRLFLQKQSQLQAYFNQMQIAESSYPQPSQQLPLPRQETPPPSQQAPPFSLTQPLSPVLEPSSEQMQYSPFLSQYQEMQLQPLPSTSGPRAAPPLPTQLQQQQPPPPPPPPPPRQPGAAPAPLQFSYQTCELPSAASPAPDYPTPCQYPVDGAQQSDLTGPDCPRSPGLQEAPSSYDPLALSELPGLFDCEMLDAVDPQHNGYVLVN
Myosin-10, sequence (P35580 whole entry): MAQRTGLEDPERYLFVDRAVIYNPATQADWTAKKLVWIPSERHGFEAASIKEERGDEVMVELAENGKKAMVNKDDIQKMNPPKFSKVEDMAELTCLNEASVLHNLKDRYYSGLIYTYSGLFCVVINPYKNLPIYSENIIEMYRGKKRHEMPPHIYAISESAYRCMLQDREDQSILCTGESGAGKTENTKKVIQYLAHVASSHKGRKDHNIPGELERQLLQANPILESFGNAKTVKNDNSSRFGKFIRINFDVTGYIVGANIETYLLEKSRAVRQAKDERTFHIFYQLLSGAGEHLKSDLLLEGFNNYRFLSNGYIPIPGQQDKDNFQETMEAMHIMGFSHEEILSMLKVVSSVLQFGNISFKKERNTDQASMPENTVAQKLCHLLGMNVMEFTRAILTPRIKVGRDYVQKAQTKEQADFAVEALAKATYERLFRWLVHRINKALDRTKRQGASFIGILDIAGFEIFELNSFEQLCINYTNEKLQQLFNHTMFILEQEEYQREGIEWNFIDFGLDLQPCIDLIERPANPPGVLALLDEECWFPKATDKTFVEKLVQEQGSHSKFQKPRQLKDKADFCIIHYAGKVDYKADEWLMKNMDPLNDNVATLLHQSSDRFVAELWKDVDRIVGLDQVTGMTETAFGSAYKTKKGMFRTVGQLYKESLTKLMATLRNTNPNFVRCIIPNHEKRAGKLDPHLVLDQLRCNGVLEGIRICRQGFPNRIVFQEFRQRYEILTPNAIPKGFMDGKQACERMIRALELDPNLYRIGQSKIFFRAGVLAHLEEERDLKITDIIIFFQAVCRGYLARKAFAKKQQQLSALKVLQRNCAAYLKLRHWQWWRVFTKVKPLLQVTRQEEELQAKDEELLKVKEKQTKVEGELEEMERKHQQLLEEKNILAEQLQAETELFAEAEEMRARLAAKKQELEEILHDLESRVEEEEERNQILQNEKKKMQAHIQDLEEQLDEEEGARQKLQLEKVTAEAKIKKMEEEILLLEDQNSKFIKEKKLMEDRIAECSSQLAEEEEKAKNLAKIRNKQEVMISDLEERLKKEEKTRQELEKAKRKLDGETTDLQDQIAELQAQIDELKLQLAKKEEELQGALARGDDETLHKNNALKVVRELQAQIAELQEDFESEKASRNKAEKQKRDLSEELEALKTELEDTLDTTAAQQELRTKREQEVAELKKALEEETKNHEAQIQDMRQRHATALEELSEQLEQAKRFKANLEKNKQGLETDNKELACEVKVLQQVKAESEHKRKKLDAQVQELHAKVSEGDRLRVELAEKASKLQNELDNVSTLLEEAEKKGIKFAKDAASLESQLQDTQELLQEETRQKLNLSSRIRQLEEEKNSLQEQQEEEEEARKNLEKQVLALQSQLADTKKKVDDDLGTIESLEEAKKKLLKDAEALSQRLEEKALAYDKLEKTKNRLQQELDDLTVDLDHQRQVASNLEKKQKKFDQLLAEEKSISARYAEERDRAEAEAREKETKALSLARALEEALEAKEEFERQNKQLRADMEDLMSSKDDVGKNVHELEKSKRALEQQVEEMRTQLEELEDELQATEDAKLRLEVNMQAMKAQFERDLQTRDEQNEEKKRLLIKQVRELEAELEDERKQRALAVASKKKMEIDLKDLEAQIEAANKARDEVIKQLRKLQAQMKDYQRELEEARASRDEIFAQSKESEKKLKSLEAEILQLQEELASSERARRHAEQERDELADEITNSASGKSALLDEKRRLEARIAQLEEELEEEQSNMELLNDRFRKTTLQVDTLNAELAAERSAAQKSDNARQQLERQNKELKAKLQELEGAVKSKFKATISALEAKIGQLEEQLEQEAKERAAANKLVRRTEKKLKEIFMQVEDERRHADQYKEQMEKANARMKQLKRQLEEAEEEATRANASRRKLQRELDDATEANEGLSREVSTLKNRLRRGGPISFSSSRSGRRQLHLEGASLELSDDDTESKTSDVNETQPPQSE
AP2-associated protein kinase 1, sequence (Q2M2I8 whole entry): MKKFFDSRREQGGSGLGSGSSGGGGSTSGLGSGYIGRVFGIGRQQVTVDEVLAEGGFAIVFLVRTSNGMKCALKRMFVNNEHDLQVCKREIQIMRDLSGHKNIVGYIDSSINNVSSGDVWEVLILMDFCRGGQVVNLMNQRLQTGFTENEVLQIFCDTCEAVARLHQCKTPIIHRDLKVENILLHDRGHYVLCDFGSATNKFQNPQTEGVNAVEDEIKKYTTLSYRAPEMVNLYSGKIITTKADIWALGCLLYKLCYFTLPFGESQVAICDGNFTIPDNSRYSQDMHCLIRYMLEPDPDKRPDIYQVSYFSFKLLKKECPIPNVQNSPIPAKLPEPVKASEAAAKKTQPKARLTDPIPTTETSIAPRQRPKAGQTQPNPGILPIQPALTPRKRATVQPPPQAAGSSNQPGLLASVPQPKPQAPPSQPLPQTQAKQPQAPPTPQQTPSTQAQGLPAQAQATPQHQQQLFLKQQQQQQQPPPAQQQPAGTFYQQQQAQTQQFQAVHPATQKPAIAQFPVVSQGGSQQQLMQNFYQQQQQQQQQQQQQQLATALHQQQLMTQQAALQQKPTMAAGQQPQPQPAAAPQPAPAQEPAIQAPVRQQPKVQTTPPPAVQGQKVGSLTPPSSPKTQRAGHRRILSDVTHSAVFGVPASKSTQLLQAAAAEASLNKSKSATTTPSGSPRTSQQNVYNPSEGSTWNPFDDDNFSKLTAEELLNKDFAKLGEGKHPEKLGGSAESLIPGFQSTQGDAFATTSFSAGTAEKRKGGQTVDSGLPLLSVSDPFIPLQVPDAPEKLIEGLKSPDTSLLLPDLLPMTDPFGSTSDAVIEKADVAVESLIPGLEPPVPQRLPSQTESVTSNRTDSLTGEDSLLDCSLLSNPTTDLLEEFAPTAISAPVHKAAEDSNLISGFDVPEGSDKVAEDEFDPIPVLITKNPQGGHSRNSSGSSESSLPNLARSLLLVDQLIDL
Casein kinase II subunit alpha', sequence (P19784 whole entry): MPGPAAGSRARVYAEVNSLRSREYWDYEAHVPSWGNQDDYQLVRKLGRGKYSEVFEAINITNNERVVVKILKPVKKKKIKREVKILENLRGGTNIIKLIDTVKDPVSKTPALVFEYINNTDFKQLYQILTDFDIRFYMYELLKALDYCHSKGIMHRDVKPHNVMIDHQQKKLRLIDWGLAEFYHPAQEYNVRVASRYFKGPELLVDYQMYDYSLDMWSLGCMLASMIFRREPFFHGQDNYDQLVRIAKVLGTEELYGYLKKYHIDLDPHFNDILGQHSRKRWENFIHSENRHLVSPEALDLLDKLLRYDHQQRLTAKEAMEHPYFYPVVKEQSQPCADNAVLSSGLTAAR

Row | Compound | Kd [1] | Kd [2] | Kd [3] | Kd [4] | Kd [5] | Kd (Insulin receptor) | Kd (LIM domain kinase 1) | Kd [6] | Kd (Myosin-10) | Kd [7] | Kd [8] | Kd [9] | Kd [10] | Kd (TGF-beta receptor type-2)
1 | CCS(=O)(=O)c1cccc(-c2cc(C(=O)NC3CCN(C)CC3)c(C)c3[nH]c4ncc(C)cc4c23)c1 [TAK-901] | > 30 µM (inactive) | 0.328 µM (active) | > 30 µM (inactive) | 28.9 µM (active) | > 30 µM (inactive) | > 30 µM (inactive) | > 30 µM (inactive) | > 30 µM (inactive) | > 30 µM (inactive) | > 30 µM (inactive) | > 30 µM (inactive) | 0.115 µM (active) | > 30 µM (inactive) | > 30 µM (inactive)
2 | CCS(=O)(=O)N1CCN(c2ccc(Nc3ncc(C(N)=O)c(NC4CC4)n3)cc2)CC1 [Cerdulatinib Hydrochloride] | 0.001 µM (active) | > 30 µM (inactive) | > 30 µM (inactive) | 16.3 µM (active) | > 30 µM (inactive) | > 30 µM (inactive) | > 30 µM (inactive) | > 30 µM (inactive) | > 30 µM (inactive) | > 30 µM (inactive) | > 30 µM (inactive) | 0.128 µM (active) | > 30 µM (inactive) | > 30 µM (inactive)
3 | Cc1cc(C(=O)NOCCO)c(Nc2ccc(I)cc2F)n(C)c1=O [AZD-8330] | > 30 µM (inactive) | > 30 µM (inactive) | > 30 µM (inactive) | > 30 µM (inactive) | > 30 µM (inactive) | > 30 µM (inactive) | > 30 µM (inactive) | > 30 µM (inactive) | > 30 µM (inactive) | > 30 µM (inactive) | > 30 µM (inactive) | > 30 µM (inactive) | > 30 µM (inactive) | > 30 µM (inactive)
4 | C#Cc1cccc(Nc2ncnc3cc(OC)c(OCCCCCCC(=O)NO)cc23)c1 [CUDC-101] | > 30 µM (inactive) | > 30 µM (inactive) | > 30 µM (inactive) | > 30 µM (inactive) | > 30 µM (inactive) | > 30 µM (inactive) | > 30 µM (inactive) | > 30 µM (inactive) | > 30 µM (inactive) | > 30 µM (inactive) | > 30 µM (inactive) | > 30 µM (inactive) | > 30 µM (inactive) | > 30 µM (inactive)
5 | NC1(c2ccc(-c3nc4ccn5c(=O)[nH]nc5c4cc3-c3ccccc3)cc2)CCC1 [MK-2206] | > 30 µM (inactive) | > 30 µM (inactive) | > 30 µM (inactive) | > 30 µM (inactive) | > 30 µM (inactive) | > 30 µM (inactive) | > 30 µM (inactive) | > 30 µM (inactive) | > 30 µM (inactive) | > 30 µM (inactive) | > 30 µM (inactive) | > 30 µM (inactive) | > 30 µM (inactive) | > 30 µM (inactive)
6 | CO[C@H]1C[C@@H]2CC[C@@H](C)[C@@](O)(O2)C(=O)C(=O)N2CCCC[C@H]2C(=O)O[C@H]([C@H](C)C[C@@H]2CC[C@@H](OP(C)(C)=O)[C@H](OC)C2)CC(=O)[C@H](C)/C=C(\C)[C@@H](O)[C@@H](OC)C(=O)[C@H](C)C[C@H](C)/C=C/C=C/C=C/1C [RIDAFOROLIMUS] | > 30 µM (inactive) | > 30 µM (inactive) | > 30 µM (inactive) | > 30 µM (inactive) | > 30 µM (inactive) | > 30 µM (inactive) | > 30 µM (inactive) | > 30 µM (inactive) | > 30 µM (inactive) | > 30 µM (inactive) | > 30 µM (inactive) | > 30 µM (inactive) | > 30 µM (inactive) | > 30 µM (inactive)
7 | COCC(=O)NC/C=C/c1ccc2ncnc(Nc3ccc(Oc4ccc(C)nc4)c(C)c3)c2c1 [CP-724714] | > 30 µM (inactive) | > 30 µM (inactive) | > 30 µM (inactive) | > 30 µM (inactive) | > 30 µM (inactive) | > 30 µM (inactive) | > 30 µM (inactive) | > 30 µM (inactive) | > 30 µM (inactive) | > 30 µM (inactive) | > 30 µM (inactive) | > 30 µM (inactive) | > 30 µM (inactive) | > 30 µM (inactive)
8 | COc1ncc(-c2ccc3nccc(-c4ccnnc4)c3c2)cc1NS(=O)(=O)c1ccc(F)cc1F [OMIPALISIB] | > 30 µM (inactive) | > 30 µM (inactive) | > 30 µM (inactive) | > 30 µM (inactive) | > 30 µM (inactive) | > 30 µM (inactive) | > 30 µM (inactive) | > 30 µM (inactive) | > 30 µM (inactive) | > 30 µM (inactive) | > 30 µM (inactive) | > 30 µM (inactive) | > 30 µM (inactive) | > 30 µM (inactive)
9 | Cc1cnc(NC(=O)Nc2cc(Br)c(C)cc2OC[C@@H]2CNCCO2)cn1 [RABUSERTIB] | > 30 µM (inactive) | > 30 µM (inactive) | > 30 µM (inactive) | > 30 µM (inactive) | > 30 µM (inactive) | > 30 µM (inactive) | > 30 µM (inactive) | > 30 µM (inactive) | > 30 µM (inactive) | > 30 µM (inactive) | > 30 µM (inactive) | > 30 µM (inactive) | > 30 µM (inactive) | > 30 µM (inactive)
10 | O=C(Nc1nc2cccc(-c3ccc(CN4CCS(=O)(=O)CC4)cc3)n2n1)C1CC1 [FILGOTINIB] | 4.99 µM (active) | > 30 µM (inactive) | > 30 µM (inactive) | > 30 µM (inactive) | > 30 µM (inactive) | > 30 µM (inactive) | > 30 µM (inactive) | > 30 µM (inactive) | > 30 µM (inactive) | > 30 µM (inactive) | > 30 µM (inactive) | > 30 µM (inactive) | > 30 µM (inactive) | > 30 µM (inactive)
11 | COc1cc([C@@H]2c3cc4c(cc3[C@H](O)[C@H]3COC(=O)[C@@H]23)OCO4)cc(OC)c1OC [AXL-1717] | > 30 µM (inactive) | > 30 µM (inactive) | > 30 µM (inactive) | > 30 µM (inactive) | > 30 µM (inactive) | > 30 µM (inactive) | > 30 µM (inactive) | > 30 µM (inactive) | > 30 µM (inactive) | > 30 µM (inactive) | > 30 µM (inactive) | > 30 µM (inactive) | > 30 µM (inactive) | > 30 µM (inactive)
12 | Cc1csc(-c2nnc(Nc3ccc(Oc4ncccc4-c4ccnc(N)n4)cc3)c3ccccc23)c1 [AMG-900] | > 30 µM (inactive) | > 30 µM (inactive) | 2.98 µM | > 30 µM (inactive) | > 30 µM (inactive) | > 30 µM (inactive) | > 30 µM (inactive) | > 30 µM (inactive) | > 30 µM (inactive) | > 30 µM (inactive) | > 30 µM (inactive) | > 30 µM (inactive) | > 30 µM (inactive) | > 30 µM (inactive)
